Measured values: patent US20200010479A1, “INHIBITORS OF MICROBIAL BETA-GLUCURONIDASE ENZYMES AND USES THEREOF” (THE UNIVERSITY OF NORTH CAROLINA AT CHAPEL HILL, priority 2017, published 2020)
Entries after “also recorded” stand apart in the source; their conditions may differ. Read-outs that look alike come from different tables or passages of the source.

How the values were obtained:
[1] = biological target: T1, E. coli GUS (Escherichia coli, UniProt P05804); type: biochemical; conditions: purified L1 enzyme, in vitro
T1 sequence (P05804 whole entry): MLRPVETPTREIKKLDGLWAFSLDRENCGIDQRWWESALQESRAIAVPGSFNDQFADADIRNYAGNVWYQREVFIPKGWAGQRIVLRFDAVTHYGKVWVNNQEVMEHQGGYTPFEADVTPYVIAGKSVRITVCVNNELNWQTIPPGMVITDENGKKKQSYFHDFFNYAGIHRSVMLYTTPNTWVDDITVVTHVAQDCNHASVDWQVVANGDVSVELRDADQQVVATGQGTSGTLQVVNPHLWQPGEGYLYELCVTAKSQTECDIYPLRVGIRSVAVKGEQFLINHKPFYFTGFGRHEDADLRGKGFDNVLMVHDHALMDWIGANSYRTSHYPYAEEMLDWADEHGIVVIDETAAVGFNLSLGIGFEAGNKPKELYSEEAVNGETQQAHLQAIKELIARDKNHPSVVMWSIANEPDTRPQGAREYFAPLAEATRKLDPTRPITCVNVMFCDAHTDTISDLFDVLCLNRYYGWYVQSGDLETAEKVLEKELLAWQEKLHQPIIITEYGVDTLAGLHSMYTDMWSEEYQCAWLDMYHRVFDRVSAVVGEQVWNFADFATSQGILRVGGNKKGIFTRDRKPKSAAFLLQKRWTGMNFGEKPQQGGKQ

[2] = test system: gut microbial GUS proteins; experiment: SN-38-G processing by in fimo samples (enzyme mixtures from intestinal contents); type: biochemical, naïve FVB mice
Text: To examine the activity of a more relevant sample of gut microbial GUS proteins, intestinal contents from naïve FVB mice in SPF conditions were obtained. […] As used herein, the ex vivo intestinal samples examined scientifically are to be termed “in fimo” from “fimus”, used by […] and in formal Latin to mean “excrement”. […] FIGS. 14A and 14B). […] FIGS. 14A and 14B).

[3] = test system: murine intestinal epithelium; experiment: Time-course of gut damage after a single treatment in FVB mice; type: in vivo, female FVB mice
Method: It has been previously reported that irinotecan induces apoptosis and reduces the number of mitotic structures in the rat intestinal epithelium (Takasuna 1996). To assess whether Inh9 impacts cell proliferation in the murine intestinal epithelium, we undertook two time-course studies. Four groups of age-, weight- and litter-matched female FVB mice were treated with a single treatment of vehicle, Inh9 (1 mg/kg p.o.), irinotecan (50 mg/kg i.p.) or irinotecan and Inh9. One set of animals were euthanized after 24 hours, and a second set after 120 hours. To assess overall effects on the animals, changes in body weight, spleen mass and hematocrit were measured. In the GI tract, levels of apoptotic cells and proliferative cells were measured and epithelial samples were examined by H&E staining.
Thus, at five days, Inh9 appears to protect this measure of animal health. […] As such, the protection afforded at 24 hours by Inh9 is sufficient to improve subsequent gut epithelial outcomes in mice several days after administration.

[4] = biological target: T2, S. agalactiae GUS (Streptococcus agalactiae serotype V, UniProt Q8E0N2); type: biochemical; conditions: purified L1 enzyme, in vitro
T2 construct: made in house
T2 sequence (Q8E0N2 whole entry): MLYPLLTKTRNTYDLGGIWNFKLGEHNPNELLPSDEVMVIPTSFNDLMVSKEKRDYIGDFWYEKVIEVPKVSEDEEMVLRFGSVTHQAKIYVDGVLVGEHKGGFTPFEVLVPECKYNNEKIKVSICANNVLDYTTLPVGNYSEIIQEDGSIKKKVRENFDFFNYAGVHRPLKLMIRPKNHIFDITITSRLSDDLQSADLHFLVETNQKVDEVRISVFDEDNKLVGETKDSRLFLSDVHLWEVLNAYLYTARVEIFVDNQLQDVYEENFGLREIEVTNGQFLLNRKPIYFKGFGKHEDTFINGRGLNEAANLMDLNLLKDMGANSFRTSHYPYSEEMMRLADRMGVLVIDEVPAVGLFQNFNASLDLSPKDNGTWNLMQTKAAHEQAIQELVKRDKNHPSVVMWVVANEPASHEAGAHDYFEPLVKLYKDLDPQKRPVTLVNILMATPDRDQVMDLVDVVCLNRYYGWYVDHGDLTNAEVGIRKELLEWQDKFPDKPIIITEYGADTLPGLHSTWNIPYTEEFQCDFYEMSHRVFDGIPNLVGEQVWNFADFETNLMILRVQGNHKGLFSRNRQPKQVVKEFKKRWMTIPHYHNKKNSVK

[5] = biological target: T3, Mini-Loop 1 (mL1) GUS from Bacteroides fragilis (Bacteroides fragilis, UniProt Q5LIC7); type: biochemical; conditions: purified mL1 enzyme, in vitro
T3 construct: made in house
T3 sequence (Q5LIC7 whole entry): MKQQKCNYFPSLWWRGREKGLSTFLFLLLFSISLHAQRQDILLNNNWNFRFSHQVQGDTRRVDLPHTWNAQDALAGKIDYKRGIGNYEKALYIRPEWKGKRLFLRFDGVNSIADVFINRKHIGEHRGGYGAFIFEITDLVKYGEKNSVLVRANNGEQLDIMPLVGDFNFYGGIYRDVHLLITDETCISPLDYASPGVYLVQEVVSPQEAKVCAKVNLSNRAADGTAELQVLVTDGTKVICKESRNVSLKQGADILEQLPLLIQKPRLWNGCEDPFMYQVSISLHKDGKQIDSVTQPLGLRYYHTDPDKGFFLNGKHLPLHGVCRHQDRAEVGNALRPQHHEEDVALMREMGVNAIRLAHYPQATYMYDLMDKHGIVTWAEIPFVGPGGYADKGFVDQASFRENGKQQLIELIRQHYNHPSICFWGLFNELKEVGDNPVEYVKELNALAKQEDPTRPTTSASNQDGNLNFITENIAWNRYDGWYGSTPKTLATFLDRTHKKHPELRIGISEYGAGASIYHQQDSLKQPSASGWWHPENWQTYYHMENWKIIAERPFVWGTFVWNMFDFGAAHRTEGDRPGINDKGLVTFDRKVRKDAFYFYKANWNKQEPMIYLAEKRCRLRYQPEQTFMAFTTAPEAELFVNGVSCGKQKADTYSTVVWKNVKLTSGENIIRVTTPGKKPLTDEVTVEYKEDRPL

[6] = test system: E. eligens GUS; experiment: SN-38-G processing by purified GUS enzymes, with inhibitors; type: biochemical, Eubacterium eligens; conditions: purified L1 enzyme, in vitro
[7] = test system: Loop 2 (L2) enzyme from Bacteroides uniformis; experiment: as above; type: biochemical; conditions: in vitro
[8] = test system: gut microbiota; experiment: 16S rRNA metataxonomic analysis of luminal contents, athymic Sum149 xenograft mice; type: in vivo
Method: A metataxonomic analysis was performed of the luminal contents of athymic mice bearing Sum149 triple-negative breast cancer xenograft tumors by sequencing the V3-V4 region of the bacterial 16s rRNA gene. […] Gut microbial diversity is associated with animal and human health, while reduced diversity is associated with disease in both model organisms and humans (REFs). Thus, Inh9 blunts the negative effects of irinotecan on gut microbial diversity in athymic tumor xenograft mice, and is capable of increases species richness in these animals.
At the phylum level, the lumenal contents of vehicle-treated mice contained 50% Bacteroidetes, 42% Firmicutes, and 4% Proteobacteria (FIG. 22B). […] Thus, in immune-deficient mice, Inh9 markedly protects gut microbial composition in athymic mice, increasing diversity and reducing irinotecan-induced increases in Proteobacteria.

[9] = test system: gut microbiota; experiment: Gut microbiota composition in C3Tag GEMM animals; type: in vivo, C3Tag GEMM mice; conditions: for composition of the gut microbiota: mice with intact immune system
Text: Finally, we examined the effects of irinotecan and GUS inhibitor on the composition of the gut microbiota in […] triple-negative breast cancer GEMM animals. […] While the vehicle and Inh9 treatment groups appeared similar by PCoA1 analysis, both the irinotecan and IRI+Inh9 groups were similar to each other and distinct from the non-irinotecan mice (FIG. 22C). However, unlike the xenograft mice, irinotecan induces much smaller changes in the composition of the gut microbiota in these GEMM animals. […] These changes were not as dramatic as those observed with the athymic Sum149 xenograft mice presented above. […] In these GEMM animals, though, no change in Enterobacteriaceae or other Gammaproteobacteria families was observed; thus, the taxa that drive the increases in Proteobacteria are not known in these immune-competent mice.

[10] = biological target: T1, E. coli GUS; experiment: In vitro EcGUS inhibition, cleavage of PNPG by purified E. coli GUS; type: biochemical; conditions: PNPG substrate, 37° C., 2 hours
Method: To assess GUS inhibition, cleavage of p-nitrophenyl-β-D-glucuronide (PNPG) by purified E. coli GUS in the presence of inhibitor was measured. The reaction was performed in 96-well clear-bottom plates at a volume of 50 μL. Each reaction contained 5 μL of 100 nM E. coli GUS, 5 μL of inhibitor at various concentrations, 10 μL of 250 mM HEPES and 250 mM NaCl assay buffer, and 30 μL of 1.5 mM PNPG. The reaction was initiated by addition of PNPG and incubated at 37° C. for 2 hours. End point absorbance values at 410 nm were measured using a PHERAstar Plus microplate reader. The resulting data were fit with a four-parameter logistic log function in SigmaPlot 13.0 to determine IC50 values. IC50 was defined as the concentration of inhibitor that yields a 50% reduction in product formation at equilibrium.

[11] = test system: C3-Tag mammary tumors; experiment: C3-Tag genetically engineered mouse model (GEMM) of triple-negative breast cancer; conditions: for number of tumors observed in the animals: between treatment groups
[12] = test system: gut microbial enzymes; experiment: SN-38-G reactivation in fimo samples after treatment of FVB mice; type: in vivo; conditions: for effects on SN-38-G reactivation by in fimo samples: samples collected at 120 hours; for SN-38-G processing activity in the mouse cecum (in fimo samples): single agent, samples collected after 24 hours
Method: The FVB mice were treated with irinotecan, the Inh9, or both irinotecan and Inh9, and it was determined how these treatments affected SN-38-G reactivation in fimo samples collected after 24 hours. […] A similar study was conducted in which samples were collected at 120 hours; at this five-day timepoint, no difference was found between the four treatment groups (data not shown).

[13] = biological target: C. perfringens GUS (Clostridium perfringens, UniProt Q8XP19); type: biochemical
C. perfringens GUS, sequence (Q8XP19 whole entry, looked up): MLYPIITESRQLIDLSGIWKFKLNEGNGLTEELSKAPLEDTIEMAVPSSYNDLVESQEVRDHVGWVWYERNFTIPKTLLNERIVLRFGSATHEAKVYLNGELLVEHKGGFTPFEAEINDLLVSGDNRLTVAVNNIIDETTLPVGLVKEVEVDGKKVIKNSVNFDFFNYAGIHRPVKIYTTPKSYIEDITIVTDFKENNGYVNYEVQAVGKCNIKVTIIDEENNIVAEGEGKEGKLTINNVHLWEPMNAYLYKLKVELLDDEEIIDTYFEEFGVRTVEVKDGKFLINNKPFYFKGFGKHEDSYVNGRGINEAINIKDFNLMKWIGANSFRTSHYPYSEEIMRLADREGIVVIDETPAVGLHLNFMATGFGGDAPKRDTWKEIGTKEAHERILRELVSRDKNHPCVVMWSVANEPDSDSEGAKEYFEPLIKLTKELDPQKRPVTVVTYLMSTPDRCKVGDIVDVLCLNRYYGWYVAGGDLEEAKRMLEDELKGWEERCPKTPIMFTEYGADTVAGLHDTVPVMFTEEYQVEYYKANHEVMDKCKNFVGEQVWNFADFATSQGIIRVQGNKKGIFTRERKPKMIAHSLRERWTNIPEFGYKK

[14] = test system: SUM149 cells; experiment: SUM149 triple negative breast cancer xenograft in athymic nude mice
[15] = test system: panel of purified GUS enzymes present in the human gut microbiota; experiment: SN-38-G processing by panel of purified GUS enzymes, with inhibitors; type: biochemical; conditions: comparison of inhibitors over the panel
[16] = test system: C3-Tag mammary tumors; conditions: mouse, in vivo
[17] = therapeutically-relevant doses; cited from earlier work
[18] = test system: SUM149 cells; conditions: athymic nude, mouse, in vivo, 5 days
[19] = test system: gut microbial GUS enzymes; conditions: irinotecan alone; cited from earlier work
[20] = Inh9 co-treatment with irinotecan, 24 hours
[21] = irinotecan plus Inh9 vs irinotecan alone, 120 hours
[22] = irinotecan and Inh9 vs irinotecan alone

## C1CCc2c(c(N3CCOCC3)nc3sc4c(N5CCNCC5)nnnc4c23)C1 [Inh9]
[1]
  inhibition of SN-38-G processing (apparent kcat): efficiently reduced
[2]; Inh9 at 50 and 100 μM
  SN-38-G reactivation by cecal contents: dose-dependent; also recorded: significantly reduce
[2]; cecum, proximal and distal colon samples, comparison of inhibitors
  reducing SN-38-G processing in fimo: superior to Inh1
[3]; [20]
  acute toxicity after single IRI injection: modestly reduces
  apoptotic cells per crypt: modest protection
[3]; Inh9 co-treatment with irinotecan, 120 hours
  apoptotic cells per crypt: modest protection
[3]; between treatment groups, 24 hours
  numbers of proliferative cells in the GI tract (BrdU): no change
[3]; co-treatment of irinotecan with Inh9, 120 hours
  number of proliferative cells per crypt in ileum, proximal colon and distal colon: significantly increased
[3]; [21]
  body weight or spleen mass: no changes
  hematocrit: significant increase
[4]
  inhibition of SN-38-G processing (apparent kcat): efficiently reduced
[5]
  inhibition of SN-38-G processing: did not inhibit
[6]
  inhibition of SN-38-G processing (apparent kcat): efficiently reduced
[7]
  inhibition of SN-38-G processing: did not inhibit
[8]; GUS inhibitor alone
  reduction of the levels of Proteobacteria compared to vehicle: more than 10 fold
[8]; IRI+Inh9
  species diversity, Chao1 richness: maintained species diversity
[8]; irinotecan and Inh9
  Bacteroidetes in lumenal contents, phylum level: 42%
  Firmicutes in lumenal contents, phylum level: 43%
  Proteobacteria in lumenal contents, phylum level: 13%
[8]; single agent
  Proteobacteria in lumenal contents, phylum level: 0.3%
  species diversity, Chao1 richness: uniformly maximized species richness
[9]
  composition of the gut microbiota: does not change
[10]
  IC50: 380 nM
[11]; IRI+Inh9
  colon tissue, H&E staining: maintained a properly assembled colonic glandular structure
  day to which the study could continue: 49 days
  primary tumor as share of body weight: below 1%
  primary tumor mass upon sacrifice: less than 100 mg
  time some animals remained diarrhea-free: 42 days
[11]; IRI+Inh9, after the first 21 days
  body weight over the course of the study: rebounded and recovered their lost weight
[11]; IRI+Inh9 vs IRI
  survival longer than IRI (Kaplan-Meier): 43%
[11]; IRI+Inh9 vs IRI alone
  number of doses of irinotecan received: significantly higher number of IRI doses; also recorded: more doses of irinotecan
[11]; IRI+Inh9 vs Veh and Inh9
  survival longer than Veh and Inh9 (Kaplan-Meier): 29%
[11]; IRI+Inh9 vs irinotecan alone
  diarrhea: significantly reduced diarrhea
[11]; Inh9 alone
  diarrhea: did not develop diarrhea
[11]; Inh9 alone (as vehicle)
  time followed until tumor size necessitated euthanasia: 70 to 80 days
[11]; Inh9 co-treatment
  extension of overall survival of irinotecan-treated mice: 14 days
[11]
  number of tumors observed in the animals: did not differ
[11]; irinotecan plus GUS inhibition
  tumor volumes measured during the study: significantly smaller tumors
[11]; single agent
  body weight over the course of the study: gained weight
  colon tissue, H&E staining: healthy colonic histology
  primary tumor as share of body weight: more than 5%
  primary tumor mass upon sacrifice: 1.5 g
  tumor volumes measured during the study: reduced tumor volumes
[11]; with Inh9
  tumor number and relative mass (FIG. 9): significant reduction
[12]; Inh9 plus irinotecan compared to irinotecan alone, 24 hours
  level of SN-38-G reactivation by in fimo samples: significantly reduced
[12]
  effects on SN-38-G reactivation by in fimo samples: no longer detected
  SN-38-G processing activity in the mouse cecum (in fimo samples): did not alter
[13]
  inhibition of SN-38-G processing (apparent kcat): efficiently reduced
[14]; Inh9 with irinotecan
  post-sacrifice colon histological examination: marked protection
[14]; [22]
  diarrhea: significantly less diarrhea
  irinotecan-induced weight loss / body weight: significant improvement; also recorded: significantly protected
  survival: slightly improved overall survival; also recorded: trended toward living longer
[14]; irinotecan-plus-Inh9
  terminal tumor masses: significantly reduced
[14]; irinotecan-plus-Inh9 compared to vehicle and Inh9 cohorts
  tumor volumes: significantly reduced
[15]
  inhibiting GUS-mediated reactivation of SN-38-G in vitro: superior to Inh1

## CCc1c2c(nc3ccc(OC(=O)N4CCC(N5CCCCC5)CC4)cc13)-c1cc3c(c(=O)n1C2)COC(=O)[C@]3(O)CC [irinotecan, (S)-4,11-diethyl-3,4,12,14-tetrahydro-4-hydroxy-3,14-dioxo1H-pyrano[3′,4′:6,7]-indolizino[1,2-b]quinolin-9-yl-[1,4′bipiperidine]-1′-carboxylate, reference compound]
[3]; irinotecan
  time to apoptotic crypt damage in the murine small intestine: ≤ 24 h
[3]; single IRI injection, five days
  spleen mass: unchanged
[3]; single IRI injection, over five days
  body mass: modest body mass reduction
[3]; single agent compared to vehicle or Inh9, 120 hours
  proliferative (BrdU+) cells per crypt in ileum, proximal colon and distal colon: significantly decreased
[16]; female, C3-Tag (strain of origin FVB/N)
  time within which all animals developed diarrhea: ≤ 14 days
[16]
  body weight over the course of the study: consistently lost weight
  colon tissue, H&E staining: almost completely destroyed glandular structure
[8]; irinotecan, athymic xenograft mice
  increase in the levels of Proteobacteria: ten-fold increase
[8]; single agent
  Bacteroidetes in lumenal contents, phylum level: 35%
  Firmicutes in lumenal contents, phylum level: 16%
  Proteobacteria in lumenal contents, phylum level: 46%
  species diversity, Chao1 richness: significant drop
[17]
  patients who develop diarrhea of all grades: 88%
  patients with life-threatening grade 3-4 diarrhea: 30%
[9]; irinotecan alone or in combination with GUS inhibitor vs no irinotecan
  Proteobacteria and Gammaproteobacteria, Verrucomicrobia and Verrocumicrobiae levels: significant increases
[9]
  composition of the gut microbiota: sole driver of changes
[11]
  number of tumors observed in the animals: did not differ
[11]; irinotecan alone, after the initiation of therapy
  time until euthanasia was required for all animals: 28 days
[11]; single agent
  primary tumor as share of body weight: 3%
  primary tumor mass upon sacrifice: ~1 g
[12]
  effects on SN-38-G reactivation by in fimo samples: no longer detected
  SN-38-G processing activity in the mouse cecum (in fimo samples): significantly increased
[18]
  mice that developed late-onset, delayed diarrhea: 50%
[14]; both irinotecan treatment groups
  time to early-onset diarrhea: ≤ 12 h
[14]; irinotecan alone, following the first treatment
  time until the entire cohort required euthanasia: 10 days
[14]; single agent
  post-sacrifice colon histological examination: dramatic irinotecan-induced epithelial damage
  terminal tumor masses: significantly reduced
[19]
  time to lethal intestinal toxicity: ≤ 10 days
